# Reference: patent publication US5811582A, “Dimethyl-(3-aryl-but-3-enyl)-amine compounds as pharmaceutical active ingredients” (priority 1996, dated 1998)
# Where a name gives a salt, the structure may show the parent alone.
# System: mice
# Experiment: Phenylquinone-induced writhing test on mice (analgesia)
# Assay type: in vivo, male NMRI mice
# Details: Mus musculus, iv, read-out: ED50 (writhing test on mice)
# Description: Testing for analgesia using the writhing test on mice
# Testing for analgesic effectiveness was performed using the phenylquinone-induced writhing test on mice, modified according to I. C. Hendershot, J. Forsaith, J. Pharmacol. Exp. Ther. 125, 237-240 (1959). Male NMRI mice with a weight of 25-30 g were used for this purpose. For each dose of substance, groups of 10 animals received, 10 minutes after the intravenous administration of a compound according to the invention, 0.3 ml per mouse of an 0.02% aqueous solution of phenylquinone (phenylbenzoquinone: manufactured by Sigma, Deisenhofen; solution prepared with the addition of 5% ethanol and kept on a water bath at 45° C.) administered intraperitoneally. The animals were placed individually in observation cages. The number of pain-induced stretching movements (so-called writhing reactions=straightening of the body with stretching of the rear extremities) 5-20 minutes after the administration of phenylquinone was counted by means of a push-button counter.
# The ED50 values of the writhing reaction were calculated by means of regression analysis (evaluation program supplied by Martens EDV Service, Eckental) from the dose-dependent decrease in the writhing reactions, by comparison with groups of animals which were tested in parallel and to which no compounds according to the invention were administered.
row,Structure (SMILES),ED50 [mg/kg]
1,"COc1cccc([C@@]2(O)CCCC[C@@H]2CN(C)C)c1.Cl (racemic) [tramadol, (1RS,2RS)-2-dimethylaminomethyl-1-(3-methoxy-phenyl)-cyclohexanol hydrochloride, reference compound]",3.68

# Same assay, conditions: Mus musculus; mice; intravenous, 10 minutes before phenylquinone (0.3 ml of 0.02% solution i.p.); writhing reactions counted 5-20 minutes after phenylquinone; read-out: ED50 (writhing test on mice)
row,Structure (SMILES),ED50 [mg/kg]
1,"C/C=C(\c1cccc(O)c1)C(C)CN(C)C.Cl (racemic) [Example 2, (Z)-(RS)-3-[1-(2-dimethylamino-1-methyl-ethyl)-propenyl]-phenol hydrochloride]",1.37
2,"C/C=C(\c1cccc(OC(=O)c2ccccc2OC(C)=O)c1)C(C)CN(C)C (racemic) [Example 4, (Z)-(RS)-2-acetoxy-benzoic acid-3-[1-2-dimethylamino-1-methyl-ethyl)-propenyl]-phenyl ester hydrochloride]",1.64
3,"C/C=C(\c1ccc2cc(O)ccc2c1)C(C)CN(C)C.Cl (racemic) [Example 12, (Z)-(RS)-6-[1-(2-dimethylamino-1-methyl-ethyl)-propenyl]-naphth-2-ol hydrochloride]",0.97
4,"CC/C=C(\c1cccc(O)c1)C(C)CN(C)C.Cl (racemic) [Example 15, (Z)-(RS)-3-[1-(2-dimethylamino-1-methyl-ethyl)-but-1-enyl]-phenol hydrochloride]",1.33
5,"CC(C)=C(c1cccc(O)c1)C(C)CN(C)C.Cl (racemic) [Example 18, (RS)-3-[1-(2-dimethylamino-1-methyl-ethyl)-2-methyl-propenyl]-phenol hydrochloride]",2.07
6,"Cc1cc2c(C3=CCCCC3CN(C)C)cccc2s1.Cl (racemic) [Example 24, (RS)-dimethyl-[2-(2-methyl-benzo[b]thiophen-4-yl]-cyclohex-2-enylmethyl]-amine hydrochloride]",1.35
7,C/C=C(\c1cccc(O)c1)[C@H](C)CN(C)C [3 (+)-enantiomer],2.25
8,C/C=C(\c1cccc(O)c1)[C@@H](C)CN(C)C [3 (-)-enantiomer],0.98
9,CN(C)C[C@H]1CCC=C1c1ccc(C(F)(F)F)cc1 [20 (+)-enantiomer],1.4
10,CN(C)C[C@@H]1CCC=C1c1ccc(C(F)(F)F)cc1 [20 (-)-enantiomer],2.12
11,C[C@@H]1C=C(c2cccc(O)c2)[C@H](CN(C)C)CC1 [25 (-)-enantiomer],0.9
12,CN(C)C[C@@H]1CCCC=C1c1cccc(O)c1 [26 (-)-enantiomer],1.04
13,CN(C)C[C@H]1CCCC=C1c1cccc(O)c1 [27 (+)-enantiomer],1.6
